Measurements reported in paper PMC11078216, “Discovery of potent and selective activity-based probes (ABPs) for the deubiquitinating enzyme USP30” (RSC Chemical Biology, 2024).
Values belong to the molecule of their own block, whether it stands above or below them.

Target: T1, RTN1 (Homo sapiens, UniProt Q16799)
T1 construct: endogenous in cells; host or cells: HEK293T
T1 sequence (Q16799 1-776): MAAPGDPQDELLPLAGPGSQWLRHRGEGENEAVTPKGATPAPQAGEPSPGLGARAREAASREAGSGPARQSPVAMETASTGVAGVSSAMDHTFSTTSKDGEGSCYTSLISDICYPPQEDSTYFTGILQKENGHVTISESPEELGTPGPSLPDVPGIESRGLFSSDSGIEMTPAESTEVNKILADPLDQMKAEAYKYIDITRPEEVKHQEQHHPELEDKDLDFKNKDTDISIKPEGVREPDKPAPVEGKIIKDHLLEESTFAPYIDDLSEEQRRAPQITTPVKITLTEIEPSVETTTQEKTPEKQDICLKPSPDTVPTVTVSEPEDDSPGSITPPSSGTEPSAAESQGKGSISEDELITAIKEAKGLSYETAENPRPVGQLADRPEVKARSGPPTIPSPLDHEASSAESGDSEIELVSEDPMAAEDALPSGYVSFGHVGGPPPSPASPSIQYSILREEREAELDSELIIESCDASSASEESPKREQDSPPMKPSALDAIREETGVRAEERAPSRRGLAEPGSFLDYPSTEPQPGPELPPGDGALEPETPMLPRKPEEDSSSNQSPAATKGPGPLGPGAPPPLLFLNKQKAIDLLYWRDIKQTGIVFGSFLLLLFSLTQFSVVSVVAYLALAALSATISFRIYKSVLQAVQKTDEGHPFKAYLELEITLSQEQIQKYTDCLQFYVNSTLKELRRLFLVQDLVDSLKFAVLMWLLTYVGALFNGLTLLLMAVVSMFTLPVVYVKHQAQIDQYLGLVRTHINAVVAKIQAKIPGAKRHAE
Assay: ABPP chemical proteomics (LC-MS/MS) in HEK293T cells
Assay type: cell-based
Procedure: To explore the selectivity of IMP-2587 and IMP-2586 across the whole proteome, we performed quantitative activity-based protein profiling (ABPP) in HEK293T cells following treatment with IMP-2587 or IMP-2586 (Fig. 3a). After ABP incubation, cells were lysed, and probe-labelled proteins were ligated to biotinylated capture reagents.[27] […] USP30 was outcompeted by corresponding parent inhibitors for each ABP (Fig. 5b and d and Tables S3 and S5, ESI ^†), confirming the high potency and rapid engagement of IMP-2587 and IMP-2586 in cells. […] DESI1 and DESI2 are small ubiquitin-related modifier (SUMO) proteases,[3,29–32] and IMP-2587 and IMP-2586 may offer a starting point for future development of DESI ABPs. […]
d) Live cell probe incubation, lysate click chemistry and precipitation 6-well HEK293T cells were incubated with media containing compounds ABP 2 and ABP 4 at indicated […]
The cells were washed with PBS and lysed with lysis buffer (50 μL (1% (v/v) Triton X-100, 0.1% (w/v) sodium dodecyl sulfate (SDS), EDTA-free complete protease inhibitor cocktail (1×, Roche) in PBS on ice for 10 min. The lysates were scraped and transferred to corresponding Lo-Bind Eppendorfs. Each lysate was sonicated for 1 minute, and the samples centrifuges at 5,000 x g at 4 °C for 5 minutes to pellet insoluble cellular debris. The supernatant was collected, and protein concentration was determined using the DC Protein Assay (Bio-Rad) as per manufacturer’s instructions, and normalised to lowest concentrated sample (e.g. 1 mg/mL, using lysis buffer). The following “click mixture” was prepared separately, preparing 6 μL for every 100 μL of […]
Capture reagent (AzRB/AzT for ABP 2, YnT/YnB for ABP 4 10 mM in DMSO, 1 vol; final concentration […]
CuSO4 (50 mM in water, 2 vol; final concentration in reaction 1 mM)
TCEP (50 mM in water, 2 vol; final concentration in reaction 1 mM)
TBTA (10 mM in DMSO, 1 vol; final concentration in reaction 100 µM)
The click mixture was vortexed and incubated at room temperature for 2 min before 6 μL of the mixture was added to every 100 μL of lysate. […]

Compound: N#CN1CC[C@@H](NC(=O)c2cc(-c3ccccc3Oc3ccc(N=[N+]=[N-])cc3)n[nH]2)C1 [IMP-2586]
Difference (log2 fold change of enrichment) (IMP-2586 labelling vs DMSO, 30 nM, 10 min, HEK293T (Table S4, Fig.5c)): 1.53

Compound: C#Cc1cccc(-c2cc(NC(=O)CC3CCN(C#N)C3)on2)c1 (stereo not drawn) [IMP-2587]
Difference (log2 fold change of enrichment) (IMP-2587 labelling vs DMSO, 30 nM, 10 min, HEK293T (Table S2, Fig.5a)): 1.77

Difference (log2 fold change of enrichment) (compound 1 out-competition with IMP-2587 labelling, HEK293T (Table S3, Fig.5b)): -0.69
Compound: N#CN1CC[C@H](CC(=O)Nc2cc(-c3cccc(Cl)c3)no2)C1 [compound 1, reference compound]
